Converted amounts (≈) assume the structure as drawn.
Assays:
[1] = system: Human immunodeficiency virus 1; experiment: Antiviral activity against wild type HIV1 IIIB infected in human MT4 cells assessed as inhibition of viral replication incubated for 3 to 5 days by MTT analysis; type: functional, organism-based; settings: Human immunodeficiency virus 1, IIIB
[2] = Aqueous solubility of compound at pH 7; type: physicochemical
[3] = system: Human immunodeficiency virus 1; experiment: Antiviral activity against HIV1 IIIB infected in human MT4 cells assessed as inhibition of viral replication incubated for 3 to 7 days by MTT analysis; type: functional, organism-based; settings: Human immunodeficiency virus 1, IIIB
[4] = system: Human immunodeficiency virus 2; experiment: Antiviral activity against HIV-2 ROD infected in human MT4 cells assessed as inhibition of viral replication measured after 5 days by MTT spectrophotometric assay; type: functional, organism-based; settings: Human immunodeficiency virus 2, ROD, MT4, 120 h
[5] = system: Human immunodeficiency virus 1; experiment: Antiviral activity against HIV-1 IIIB infected in human MT4 cells assessed as inhibition of viral replication measured after 5 days by MTT spectrophotometric assay; type: functional, organism-based; settings: Human immunodeficiency virus 1, IIIB, MT4, 120 h
[6] = system: Human immunodeficiency virus 1; experiment: Antiviral activity against HIV-1 3B infected in human MT4 cells assessed as inhibition of viral replication incubated for 5 days by MTT assay; type: functional, organism-based; settings: Human immunodeficiency virus 1, 3B, MT4, 120 h
[7] = system: Human immunodeficiency virus 1; experiment: Antiviral activity against HIV1 Env pseudotyped virus infected in human HEK293T cells assessed as inhibition of viral growth incubated for 72 hrs by luciferase assay; type: functional, organism-based; settings: Human immunodeficiency virus 1, HEK-293T

## Cc1cc(C#N)cc(C)c1Oc1ccnc(Nc2ccc(N3CCN(S(C)(=O)=O)CC3)nc2)n1
[1]
  EC50: 2 nM

## Cc1cc(C#N)cc(C)c1Oc1ccnc(Nc2ccc(N3CCN(S(C)(=O)=O)CC3)c(C#N)c2)n1
[1]
  EC50: 1 nM
[2]
  solubility: 13.5 µg/mL (≈ 26.7 µM)

## Cn1c(N2CCNCC2)c(/N=N/c2ccc(Cl)cc2)c(N)nc1=O
[3]
  EC50: > 3030 nM

## O=C1Nc2ccc(Cl)cc2[C@@](C#CC2CC2)(C(F)(F)F)N1
[4]
  IC50: 2.22 µg/mL (≈ 7.05 µM)
[5]
  IC50: 2.22 µg/mL (≈ 7.05 µM)
[6]
  IC50: 813 nM

## COc1cnc(-n2cnc(C)n2)c2[nH]cc(C(=O)C(=O)N3CC(C)N(C(=O)c4ccccc4)C(C)C3)c12 (stereo not drawn)
[7]
  IC50: 0.14 nM
